This note sets out measurements from patent publication US4797417A, “Furanone derivatives, process for preparation thereof and use thereof” (Fujisawa Pharmaceutical Co., Ltd., priority 1982, dated 1989).

One experiment deals with T1, aldose reductase (Oryctolagus cuniculus, UniProt P15122).
T1 construct: The lenses were homogenized with 3 volumes of distilled water at 4° C; from tissue; host or cells: rabbit lens (homogenate, 10,000 G supernatant, dialysed)
Briefly: Aldose reductase-inhibiting activity, enzymatic assay (decrease in NADPH, D,L-glyceraldehyde substrate, rabbit lens enzyme solution). The format is biochemical. The conditions noted are these: IC50 (M), concentration at which the aldose reductase activity is inhibited by 50%, pH 6.2, 35° C., 2 minutes. The procedure:
(1) Enzymatic assay method:
The above reactants were mixed and reacted at 35° C. for 2 minutes and the decrease in amount of NADPH was measured with an Automatic Reaction Rate Analyzer Model LKB-8600 of LKB Producter A. B. The enzyme activity at achange in absorbance of 0.001 per minute was taken as unity.
(2) Method for preparing an enzyme solution
Rabbit eyes were enucleated and the lenses collected. The lenses were homogenized with 3 volumes of distilled water at 4° C. (All the subsequent procedures were also performed at 4° C.) and centrifuged at 10,000 G for 60 minutes. The supernatant was dialyzed against 2 liters of 0.05 M of saline solution and the interal fluid was used as the enzyme solution.
`COC1=C(c2cccc(C(F)(F)F)c2)C(CCC(=O)O)OC1=O` (stereo not drawn) [Example 20, 3-[4-Methoxy-5-oxo-3-(3-trifluoromethylphenyl)2,5-dihydro-2-furyl]propionicacid] yielded an IC50 of 4.8e-07 M.

Staying with this experiment, now noted: concentration at which the aldose reductase activity is inhibited by 50%, pH 6.2, 35° C., 2 minutes, read-out: IC50.
For `COC1=C(c2ccccc2)C(CCC(=O)O)OC1=O` (stereo not drawn) [Example 18, 3-(4-Methoxy-5-oxo-3-phenyl-2,5-dihydro-2-furyl)propionic acid], the IC50 is 2.2e-07 M.

Turning to `O=C(O)CCC1OC(=O)C(O)=C1c1ccccc1` (single isomer, unassigned) [Example 30-2, (d)-3-(4-hydroxy5-oxo-3-phenyl-2,5-dihydro-2-furyl)propionic acid], the IC50 turned out to be 2.5e-06 M.

`CCOC(=O)CCC1OC(=O)C(OC)=C1c1ccccc1` (stereo not drawn) [Example 4, ethyl 3-(4-methoxy-5-oxo-3-phenyl-2,5-dihydro-2-furyl)propionate]: the IC50 amounted to 2.2e-07 M. Consider `COC1=C(c2ccc(Cl)cc2)C(CCC(=O)O)OC1=O` (stereo not drawn) [Example 19, 3-[3-(4-Chlorophenyl)-4-methoxy-5-oxo-2,5-dihydro-2-furyl]propionic acid], for which the IC50 is 1.5e-07 M.

Turning to `O=C(O)CCC1OC(=O)C(O)=C1c1ccccc1` (single isomer, unassigned) [Example 30-3, (l)-3-(4-hydroxy-5-oxo-3-phenyl-2,5-dihydro-2-furyl)propionic acid], the IC50 amounted to 5.4e-07 M. The same measure, in the same setting: the value for `CCCCCOC1=C(c2ccccc2)C(CCC(=O)O)OC1=O` (stereo not drawn) [Example 17, 3-(5-oxo-4-pentyloxy-3-phenyl2,5-dihydro-2-furyl)propionicacid] was 5e-08 M; that for `O=C(O)CCC1OC(=O)C=C1c1ccccc1` (stereo not drawn) [Example 29-8, 3-(2,5-dihydro5-oxo-3-phenyl-2-furyl)propionic acid] was 5.4e-07 M. On the same count and under the same terms, with `CCOC1=C(c2ccccc2)C(CCC(=O)O)OC1=O` (stereo not drawn) [Example 22, 3-(4-ethoxy-5-oxo-3-phenyl2,5-dihydro-2-furyl)propionic acid] the figure was 2e-07 M.
